Experimental data published in patent US5104859A, “Continuous administration of adenosine to reduce pulmonary vascular resistance” (priority 1990, dated 1992).
Where “and” joins values, the source holds several entries; their conditions need not be identical. Equal values may be shown once. Entries after “also recorded” stand apart in the source; their conditions may differ.

Assays:
[1] = test system: cardiovascular system; details: bolus about 37.5 to 450 micrograms/kg; cited from earlier work
[2] = test system: myocardial blood flow; details: 0.05 to about 0.1 mg/kg/min
Description: Patients requiring abdominal vascular surgery, such as surgery for an aortic aneurysm, frequently also suffer from ischemic heart disease, or insufficient blood flow to the heart tissue, which may present undesirable complications in such surgery.
For such application, the rate of adenosine administration should be such that there is no more than a 10-20 per cent reduction in blood pressure.

[3] = test system: atrio-ventricular (A-V) node; details: through blockage of the A-V node; cited from earlier work
[4] = test system: atrio-ventricular (A-V) node; test: Atrio-ventricular conductance / heart block; assay type: in vivo, human
Description: In accordance with this invention, adenosine may be administered to human patients by continuous intravenous infusion to provide significant vasodilation and without significant heart blockage under two conditions. First, the heart blocking action of adenosine is not detected during anesthesia when the rate of administration is 0.35 milligrams of adenosine per kilogram of body weight per minute or less. Second, the heart blocking action of adenosine is not detected, even in conscious patients, at rates of administration of about 0.10 milligram of adenosine per kilogram of body weight per minute or less.

[5] = Plasma half-life of adenosine; assay type: in vivo
[6] = test system: systemic arterial blood pressure and central hemodynamics; test: Controlled hypotension during anesthesia: central hemodynamics (dipyridamole-pretreated cerebral aneurysm surgery patients); details: for tachyphylaxis: constant infusion rate during hypotension
Description: One hour before the operation the patients were premedicated orally with diazepam (10-20 mg.) Atropine (0.5 mg) and droperidol (0.1 mg. per kg.) were given intravenously before induction of anesthesia. Induction was started with thiopental (5 mg. per kg) followed by phenoperidine (1-2 mg), a synthetic opiate with pharmacodymanics resembling fentanyl but with a longer duration of action and 1/10 of its analgesic potency.
Pancuronium bromide (0.1 mg per kg) was given to facilitate endotracheal intubation. Anesthesia was maintained by supplementary doses of phenoperidine and droperidol, as required. […] Phenoperidine was supplemented regularly to prevent the blood pressure from exceeding the preanesthetic level (approx. 1 mg/30-60 min). Controlled hyperventilation was employed with a humidified gas mixture of 60% N2 O in oxygen to maintain PaCO2 values at approximately 30 mmHg (±1.5/SEM). Mannitol (1-1.5 g. per kg) was given routinely at the start of the operation (e.g., 1-2 hours prior to the controlled hypotension). The patients were operated on in the horizontal supine position.
A 1.2-mm plastic cannula was introduced into the left radial artery to monitor systemic arterial blood pressure (MABP) and collect arterial blood. A balloon-tipped, flow-directed, quadruple lumen Swan-Ganz catheter (Model 93A-831-7.5 F, VIP) was inserted percutaneously via the left basilic vein, and its correct position in the pulmonary artery was determined by pressure tracings. The catheter was used for the monitoring of mean right atrial pressure (RAP), mean pulmonary artery pressure (PAP), and mean pulmonary capillary wedge pressure (PCWP) for the determination of cardiac output and collection of mixed venous blood and for the infusion of adenosine. Another plastic cannula was introduced percutaneously, in a retrograde direction, into the right jugular bulb for the collection of blood. The correct position was verified by x-ray.
The ECG was monitored with a standard chest (V5) lead. Heart rate was determined from the R-R interval. Blood pressures were measured by transducers placed at the midthoracic level. Cardiac output (QT) was determined in triplicate according to the thermodilution technique with a cardiac output computer (Edwards Lab, model 9510). Isotonic glucose, 10 ml at 1° C., was used as a thermal indicator. The ECG, heart rate, blood pressures, and thermodilution curves were recorded on a Grass® polygraph.
Measurements and blood samplings were performed immediately before hypotension, as late as possible during hypotension (1-5 min before terminating the infusion) and approximately 30 min after the hypotensive period.
Dipyridamole (5 mg. per ml) was infused iv (0.3-0.4 mg. per kg. over a period of 5-10 min) approximately 20 minutes prior to the induction of controlled hypotension. […] (See Pedersen, J. Chromatogr., 162: 98-103 (1979).
The infusion was started at a rate of 0.01 mg. per kg. per minute, which was doubled at 15 second intervals until the desired MABP level of 40-50 mmHg was reached. […] Serum creatinine was determined before and on two consecutive days after operation. The standard ECG was recorded the day before and the day after operation.
Systemic vascular resistance (SVR) was derived from the formula [formula] and pulmonary vascular resistance (PVR) from the formula [formula]
The statistical significance (control 1 vs. adenosine and control 1 vs. control 2) was determined by Student's t test for paired data. A P value of <0.05 was regarded as significant.

[7] = Plasma adenosine and metabolite concentrations during cardiopulmonary bypass (HPLC); details: in vivo; for concentration: human, iv
Description: In six cases the plasma adenosine levels were determined by high performance liquid chromatography (HPLC) (Fredholm and Sollevi, J. Physiol. (London), 313: 351-67 (1981) in arterial and in venous (venous lines to the oxygenator) blood. The adenosine metabolites inosine, hypoxanthine and uric acid were also determined by HPLC. The samples were collected as previously described (Sollevi, Acta. Physiol. Scand., 121: 165-72 (1984) at the intervals of 10, 20, 40 and 80 minutes during CPB and 20 minutes after CPB.
Statistical significance (controls v. adenosine group) was determinted with Student's t-test for unpaired data. For significance within the groups the Wilcoxon Rank Sum test was used. p […] 0.05 was regarded as significant.

[8] = Control 2, 30 min after hypotension

## Nc1ncnc2c1ncn2[C@@H]1O[C@H](CO)[C@@H](O)[C@H]1O [adenosine]
[1]
  vasodilating action of injectable bolus: little detectable vasodilating action
[2]
  increase of cardiac output: 10 to 20%
  reduction of blood pressure: 10 to 20 per cent
[2]; words
  oxygen consumption: without change in oxygen consumption
[3]
  heart block: produce heart block
[4]; about 0.10 mg/kg/min or less
  heart block in conscious patients: not detected
[4]; anesthesia, 0.35 mg/kg/min or less, 0.35 mg/kg
  heart block / blockage of A-V conductance during anesthesia: not detected; also recorded: does not occur; also recorded: no blockage of atrio-ventricular conductance is observed
[4]; continuous infusion
  A-V activity at vasodilating doses: significant useful vasodilating action at dosages below those at which it has significant A-V activity
[5]
  half-life: < 10 s
[6]
  PVR during adenosine: unchanged
  RAP, PAP and PCWP: not influenced
  decrease in MABP: 43±3%
  decrease in SVR: 61±3%
  increase in cardiac output: 44±9%
  increase in heart rate: 9±2 beats per minute
  tachyphylaxis: without evidence of tachyphylaxis
[6]; [8]
  Cardiac output: 5.17 ± 0.54 liters per min.
  Diastolic blood pressure: 71 ± 3 mmHg
  Mean arterial blood pressure: 91 ± 4 mmHg
  Pulmonary artery pressure: 14.7 ± 1.4 mmHg
  Pulmonary capillary wedge pressure: 9.9 ± 1.4 mmHg
  Pulmonary vascular resistance: 0.97 ± 0.15 mmHg per liter min.
  Right atrial pressure: 5.6 ± 0.8 mmHg
  Systolic blood pressure: 130 ± 7 mmHg
  heart rate: 58 ± 3 beats per min.
[6]; after discontinuation of infusion
  rebound hypertension: did not occur
[6]; listed as Adenosine
  tachyphylaxis: absence of tachyphylaxis
[6]; decreased from 16.7
  SVR during adenosine: 6.2 mmHg per liter a minute
[6]; during adenosine
  Cardiac output: 6.86 ± 0.71 liters per min.
  Diastolic blood pressure: 34 ± 2 mmHg
  Mean arterial blood pressure: 46 ± 2 mmHg and 46 mmHg
  Pulmonary artery pressure: 16.5 ± 0.9 mmHg
  Pulmonary capillary wedge pressure: 11.0 ± 1.0 mmHg
  Pulmonary vascular resistance: 0.82 ± 0.08 mmHg per liter min.
  Right atrial pressure: 7.2 ± 0.7 mmHg
  Systolic blood pressure: 78 ± 6 mmHg
  heart rate: 63 ± 3 beats per min.
[6]; increased from 4.9
  cardiac output during adenosine: 6.9 1 per minute
[6]; persistently higher after hypotension
  MABP increase after hypotension vs control period: approximately 10 mmHg
[6]; within
  time to decrease in MABP: 1 to 2 min
  time to restoration of MABP after discontinuation: 1 to 5 min
[7]
  concentration: 2000 to 10000 nM
  Arterial concentration: 0.3 ± 0.1 µM
  arterial levels: approximately doubled
[7]; 20 min
  concentration: 400 ± 100 nM
